The molecules below were run on human MET (assay: MET biochemical kinase assay).
Parameters: concentration or dose not given beside the values
Source text: (d) MET Biochemical Kinase Assay
A met biochemical kinase assay may be performed for met generally as described above for other kinases by substituting that or the other kinases. In particular, ELISA plates are coated with goat anti-rabbit Fc antibodies, which are used to capture commercially available (from Santa Cruz Biotechnology) rabbit polyclonal antibodies to the cytoplasmic domain of human MET. […] The chimeric receptors, or MET, from these lysates are captured on the antibody coated plates. After washing away extraneous proteins, test compounds are added and an in vitro kinase assay is performed by addition of an appropriate kinase buffer (containing ATP, divalent metal ions, etc.). Incorporation of phosphate into the captured receptors is detected with an anti-phosphotyrosine antibody conjugate with horse radish peroxidase using TMB as a substrate for calorimetric detection.

Met Kinase % Inhibition [%]	Compound
46.0	CCOc1cccc(C=C2C(=O)Nc3ccc(S(=O)(=O)NC)cc32)c1O [10734/D02]
9.0	CNS(=O)(=O)c1ccc2c(c1)C(=Cc1cc([N+](=O)[O-])cc(CCl)c1O)C(=O)N2 [10721/D06]
−10.4	O=C1Nc2ccc(S(=O)(=O)Nc3ccc(C(F)(F)F)cc3)cc2C1=Cc1ncc[nH]1 [10720/E11]
52.0	CCN(CC)c1ccc(C=C2C(=O)Nc3ccc(S(=O)(=O)N4CCOCC4)cc32)cc1 [10727/F02]
−2.4	CCOc1ccc(C=C2C(=O)Nc3ccc(CCCl)cc32)cc1OC [10719/G02]
−8.2	COc1ccc(C=C2C(=O)Nc3ccc(CCCl)cc32)c(OC)c1 [10719/G04]
8.7	O=C1Nc2ccc(S(=O)(=O)N3CCOCC3)cc2C1=Cc1ccc(F)cc1C(F)(F)F [10719/F11]
18.0	O=C1Nc2ccc(S(=O)(=O)Nc3ccc(C(F)(F)F)cc3)cc2C1=Cc1c(F)cc(F)cc1F [10720/E02]
55.0	CCOc1cccc(C=C2C(=O)Nc3ccc(S(=O)(=O)N4CCOCC4)cc32)c1O [10734/F02]
−18.1	COc1cc(OC)c(C=C2C(=O)Nc3ccc(CCCl)cc32)c(OC)c1 [10719/G06]
22.0	CCc1cc(CC)c(C=C2C(=O)Nc3ccc(S(=O)(=O)N4CCOCC4)cc32)[nH]1 [10727/F03]
9.7	CNS(=O)(=O)c1ccc2c(c1)C(=Cc1cc(C)c(C)o1)C(=O)N2 [10730/D11]
−2.4	Cc1cc(C)c(C=C2C(=O)Nc3ccc(CCCl)cc32)[nH]1 [10721/G08]
59.0	Cc1ccc(C=C2C(=O)Nc3ccc(S(=O)(=O)Nc4ccc(C(F)(F)F)cc4)cc32)o1 [10725/E04]
29.0	COc1ccc(C=C2C(=O)Nc3ccc(Br)c(C)c32)cc1OC [10720/C04]
9.9	CNS(=O)(=O)c1ccc2c(c1)C(=Cc1ccc(O)c(C)c1O)C(=O)N2 [10718/D09]
0.7	CC(C)(C)c1cc(C=C2C(=O)Nc3ccc(S(=O)(=O)Nc4ccc(C(F)(F)F)cc4)cc32)ccc1O [10721/E09]
68.0	COc1ccc(Br)c(C=C2C(=O)Nc3c(Br)cc(Br)cc32)c1O [10725/A03]
−22.0	COc1cc(OC)c(C=C2C(=O)Nc3ccc(S(=O)(=O)N4CCOCC4)cc32)c(OC)c1 [10719/F06]
92.0	O=C1Nc2ccc(S(=O)(=O)N3CCOCC3)cc2C1=Cc1cc(Cl)cc(Br)c1O [10727/F04]
8.7	CCn1c2ccccc2c2cc(C=C3C(=O)Nc4ccc(S(=O)(=O)NC)cc43)ccc21 [10731/D02]
49.0	O=C1Nc2ccc(S(=O)(=O)N3CCOCC3)cc2C1=Cc1c[nH]c2ccccc12 [10717/F06]
64.0	O=C1Nc2ccc(S(=O)(=O)N3CCOCC3)cc2C1=Cc1ccc(Br)cc1 [10717/F08]
60.0	CNS(=O)(=O)c1ccc2c(c1)C(=Cc1ccc(O)c(C)c1)C(=O)N2 [10723/D06]
−2.2	O=C1Nc2ccc(S(=O)(=O)Nc3ccc(C(F)(F)F)cc3)cc2C1=Cc1cc2c(cc1Cl)OCO2 [10727/E06]
47.0	CCOc1ccc(C=C2C(=O)Nc3ccc(I)cc32)cc1OC [10719/B02]
−6.8	CNS(=O)(=O)c1ccc2c(c1)C(=Cc1cc(C)c(OCc3ccccc3)c(C)c1)C(=O)N2 [10733/D07]

Second part, the molecule before the results:

Compound	Met Kinase % Inhibition [%]
O=C1Nc2ccc(I)cc2C1=Cc1ccc(O)c([N+](=O)[O-])c1 [10724/B03]	51.0
CSc1ccc(C=C2C(=O)Nc3ccc(S(=O)(=O)Nc4ccc(C(F)(F)F)cc4)cc32)cc1 [10729/E04]	9.8
CCN(CC)c1ccc(C=C2C(=O)Nc3c(Br)cc(Br)cc32)cc1 [10727/A02]	52.0
O=C1Nc2ccc(S(=O)(=O)Nc3ccc(C(F)(F)F)cc3)cc2C1=Cc1c[nH]cn1 [10725/E11]	9.6
Cn1c(C=C2C(=O)Nc3ccc(CCCl)cc32)nc2ccccc21 [10721/G02]	7.9
Cc1c(Br)ccc2c1C(=Cc1ccc(Br)o1)C(=O)N2 [10726/C05]	58.0
Cc1c(Br)ccc2c1C(=Cc1ccc(F)cc1Cl)C(=O)N2 [10719/C09]	8.9
O=C1Nc2ccc(CCCl)cc2C1=Cc1ccc([N+](=O)[O-])o1 [10718/G11]	3.0
O=C1Nc2ccc(CCCl)cc2C1=Cc1cccc(Oc2ccccc2)c1 [10729/G06]	26.0
CC(C)(C)c1cc(C=C2C(=O)Nc3ccc(CCCl)cc32)ccc1O [10721/G09]	5.1
Cc1c(Br)ccc2c1C(=Cc1ccco1)C(=O)N2 [10718/C10]	4.4
O=C1Nc2ccc(S(=O)(=O)Nc3ccc(C(F)(F)F)cc3)cc2C1=Cc1cc([N+](=O)[O-])cc(CCl)c1O [10721/E06]	81.0
Cc1c(Br)ccc2c1C(=Cc1ccc(O)cc1)C(=O)N2 [10719/C07]	7.7
Cc1cc(C=C2C(=O)Nc3c(Br)cc(Br)cc32)oc1C [10730/A11]	91.0
Cc1ccc(C=C2C(=O)Nc3ccc(CCCl)cc32)s1 [10717/G07]	7.5
CCCCN(CCCC)c1ccc(C=C2C(=O)Nc3ccc(CCCl)cc32)cc1 [10722/G10]	27.0

Compound	Met Kinase % Inhibition [%]
Cn1cccc1C=C1C(=O)Nc2ccc(I)cc21 [10717/B04]	70.0
CC(C)(C)c1cc(C=C2C(=O)Nc3c(Br)cc(Br)cc32)ccc1O [10721/A09]	23.0
O=C1Nc2ccc(CCCl)cc2C1=Cc1cc2c3c(c1O)CCCN3CCC2 [10724/G05]	61.0
O=C1Nc2ccc(CCCl)cc2C1=Cc1cc2c([nH]1)CCCC2 [10721/G05]	8.6
O=C1Nc2ccc(CCCl)cc2C1=Cc1ccccc1Sc1ccc(Cl)cc1 [10727/G05]	7.1
Cc1ccc(C=C2C(=O)Nc3ccc(I)cc32)s1 [10717/B07]	90.0
CCOC(=O)c1cc(C=C2C(=O)Nc3ccc(Br)c(C)c32)oc1C [10718/C06]	3.9
CC(C)(C)c1cc(C=C2C(=O)Nc3ccc(S(=O)(=O)Nc4ccc(C(F)(F)F)cc4)cc32)cc(C(C)(C)C)c1OCc1ccccc1 [10733/E05]	2.9
O=C1Nc2ccc(CCCl)cc2C1=Cc1ccc(Cl)s1 [10721/G07]	10.0
Cc1[nH]c(C=C2C(=O)Nc3ccc(I)cc32)c(Br)c1Br [10717/B11]	91.0
Cc1ccc2occ(C=C3C(=O)Nc4c(Br)cc(Br)cc43)c(=O)c2c1 [10731/A06]	53.0
Cc1c(Br)ccc2c1C(=Cc1c(Br)cnn1-c1ccc(Cl)cc1)C(=O)N2 [10725/C10]	−0.6
CC(C)c1cc(C=C2C(=O)Nc3ccc(S(=O)(=O)Nc4ccc(C(F)(F)F)cc4)cc32)cc(C(C)C)c1Oc1ccccc1 [10732/E04]	8.2
O=C1Nc2ccc(CCCl)cc2C1=Cc1cccn1-c1ccc(Cl)cc1 [10724/G09]	−2.8
O=C1Nc2ccc(I)cc2C1=Cc1cccnc1 [10729/B08]	66.0

Source: patent US7202265B2, “Indolinone combinatorial libraries and related products and methods for the treatment of disease” (Sugen, Inc., priority 1997, dated 2007)
